According to ChEMBL document CHEMBL2029272, “7-Azabicyclo[2.2.1]heptane as a scaffold for the development of selective sigma-2 (σ2) receptor ligands” (Bioorg Med Chem Lett, 2012):

Experiments:
[1] = target: Alpha-2B adrenergic receptor (Homo sapiens) (UniProt P18089); test: Inhibition of alpha2B adrenergic receptor at 10 uM
[2] = target: Alpha-2C adrenergic receptor (Homo sapiens) (UniProt P18825); test: Inhibition of alpha2C adrenergic receptor at 10 uM
[3] = target: Alpha-2B adrenergic receptor (Homo sapiens, UniProt P18089); test: Inhibition of alpha2B adrenergic receptor
[4] = target: Alpha-1B adrenergic receptor (Homo sapiens, UniProt P35368); test: Inhibition of alpha1B adrenergic receptor
[5] = target: Muscarinic acetylcholine receptor M3 (Homo sapiens, UniProt P20309); test: Inhibition of M3 muscarinic receptor
[6] = target: Sodium-dependent dopamine transporter (Homo sapiens, UniProt Q01959); test: Inhibition of DAT
D(3) dopamine receptor = D(3) dopamine receptor (Homo sapiens, UniProt P35462); test: Inhibition of D3 dopamine receptor
D(1B) dopamine receptor = D(1B) dopamine receptor (Homo sapiens, UniProt P21918); test: Inhibition of D5 dopamine receptor
[7] = target: Muscarinic acetylcholine receptor M2 (Homo sapiens) (UniProt P08172); test: Inhibition of M2 muscarinic receptor at 10 uM
[8] = target: Muscarinic acetylcholine receptor M4 (Homo sapiens) (UniProt P08173); test: Inhibition of M4 muscarinic receptor at 10 uM
[9] = target: Muscarinic acetylcholine receptor M1 (Homo sapiens) (UniProt P11229); test: Inhibition of M1 muscarinic receptor at 10 uM
Sequence of Muscarinic acetylcholine receptor M1 (Homo sapiens) (P11229 whole entry): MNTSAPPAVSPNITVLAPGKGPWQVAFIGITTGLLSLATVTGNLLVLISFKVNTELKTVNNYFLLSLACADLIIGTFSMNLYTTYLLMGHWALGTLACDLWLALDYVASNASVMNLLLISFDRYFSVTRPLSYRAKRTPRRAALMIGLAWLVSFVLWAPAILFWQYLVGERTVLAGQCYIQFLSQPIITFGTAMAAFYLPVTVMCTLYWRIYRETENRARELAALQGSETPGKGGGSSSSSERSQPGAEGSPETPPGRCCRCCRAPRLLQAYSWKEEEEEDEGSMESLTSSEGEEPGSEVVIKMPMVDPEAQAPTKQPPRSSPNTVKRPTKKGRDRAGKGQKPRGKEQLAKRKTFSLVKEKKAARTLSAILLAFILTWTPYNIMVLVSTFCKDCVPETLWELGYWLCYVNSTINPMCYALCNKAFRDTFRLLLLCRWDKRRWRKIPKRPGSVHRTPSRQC

Sequence of Alpha-2B adrenergic receptor (Homo sapiens) (P18089 whole entry): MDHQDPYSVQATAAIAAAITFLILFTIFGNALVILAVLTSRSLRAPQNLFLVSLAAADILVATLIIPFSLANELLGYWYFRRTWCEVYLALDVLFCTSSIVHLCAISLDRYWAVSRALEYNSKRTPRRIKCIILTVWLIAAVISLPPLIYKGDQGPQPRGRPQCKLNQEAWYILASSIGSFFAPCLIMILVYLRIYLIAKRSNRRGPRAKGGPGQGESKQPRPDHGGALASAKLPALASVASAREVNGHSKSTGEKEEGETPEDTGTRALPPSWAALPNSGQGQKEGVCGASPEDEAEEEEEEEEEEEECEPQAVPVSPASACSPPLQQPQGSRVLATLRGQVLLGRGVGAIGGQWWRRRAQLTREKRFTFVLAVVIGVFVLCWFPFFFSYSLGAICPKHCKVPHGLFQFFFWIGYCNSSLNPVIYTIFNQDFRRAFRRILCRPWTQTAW
Sequence of Alpha-2B adrenergic receptor (P18089 whole entry): as above
Sequence of Muscarinic acetylcholine receptor M3 (P20309 whole entry): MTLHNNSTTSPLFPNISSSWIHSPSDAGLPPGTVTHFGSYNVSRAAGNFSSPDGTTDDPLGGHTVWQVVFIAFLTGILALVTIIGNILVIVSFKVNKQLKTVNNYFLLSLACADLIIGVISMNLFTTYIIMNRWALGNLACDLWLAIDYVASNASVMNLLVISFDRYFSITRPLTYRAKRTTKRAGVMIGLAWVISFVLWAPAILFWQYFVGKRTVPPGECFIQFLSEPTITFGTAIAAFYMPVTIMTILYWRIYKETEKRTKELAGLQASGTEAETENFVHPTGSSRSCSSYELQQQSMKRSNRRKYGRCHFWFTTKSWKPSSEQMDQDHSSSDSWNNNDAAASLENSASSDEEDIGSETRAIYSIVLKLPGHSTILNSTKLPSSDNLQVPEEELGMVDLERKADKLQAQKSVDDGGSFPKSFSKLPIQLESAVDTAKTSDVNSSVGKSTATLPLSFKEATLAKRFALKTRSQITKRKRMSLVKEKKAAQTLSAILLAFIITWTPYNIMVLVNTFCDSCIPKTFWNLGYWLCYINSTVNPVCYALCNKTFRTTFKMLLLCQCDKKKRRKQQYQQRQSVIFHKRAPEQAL
Sequence of D(3) dopamine receptor (P35462 whole entry): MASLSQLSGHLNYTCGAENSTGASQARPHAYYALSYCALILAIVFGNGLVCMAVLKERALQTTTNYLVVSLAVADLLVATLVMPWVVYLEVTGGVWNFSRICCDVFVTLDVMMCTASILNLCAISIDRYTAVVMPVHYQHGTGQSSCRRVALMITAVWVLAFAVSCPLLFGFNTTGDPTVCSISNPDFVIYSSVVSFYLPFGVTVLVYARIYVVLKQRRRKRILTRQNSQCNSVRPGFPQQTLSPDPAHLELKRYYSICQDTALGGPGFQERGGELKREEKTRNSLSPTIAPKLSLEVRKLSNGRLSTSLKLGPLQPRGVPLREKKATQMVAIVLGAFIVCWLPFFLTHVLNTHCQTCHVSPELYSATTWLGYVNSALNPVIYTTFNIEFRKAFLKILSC
Sequence of Muscarinic acetylcholine receptor M2 (Homo sapiens) (P08172 whole entry): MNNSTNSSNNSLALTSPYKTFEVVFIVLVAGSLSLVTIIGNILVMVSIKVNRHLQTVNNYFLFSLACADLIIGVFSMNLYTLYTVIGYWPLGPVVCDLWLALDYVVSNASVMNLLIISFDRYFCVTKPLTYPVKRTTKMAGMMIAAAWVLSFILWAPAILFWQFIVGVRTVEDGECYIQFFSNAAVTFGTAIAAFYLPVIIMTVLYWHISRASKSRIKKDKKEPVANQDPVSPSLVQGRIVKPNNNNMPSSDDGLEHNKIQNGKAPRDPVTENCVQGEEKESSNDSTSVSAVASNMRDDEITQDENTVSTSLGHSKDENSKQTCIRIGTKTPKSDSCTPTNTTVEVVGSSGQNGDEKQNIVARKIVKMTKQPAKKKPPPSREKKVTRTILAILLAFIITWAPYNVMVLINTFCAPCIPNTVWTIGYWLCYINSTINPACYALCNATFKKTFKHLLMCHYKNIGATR
Sequence of D(1B) dopamine receptor (P21918 whole entry): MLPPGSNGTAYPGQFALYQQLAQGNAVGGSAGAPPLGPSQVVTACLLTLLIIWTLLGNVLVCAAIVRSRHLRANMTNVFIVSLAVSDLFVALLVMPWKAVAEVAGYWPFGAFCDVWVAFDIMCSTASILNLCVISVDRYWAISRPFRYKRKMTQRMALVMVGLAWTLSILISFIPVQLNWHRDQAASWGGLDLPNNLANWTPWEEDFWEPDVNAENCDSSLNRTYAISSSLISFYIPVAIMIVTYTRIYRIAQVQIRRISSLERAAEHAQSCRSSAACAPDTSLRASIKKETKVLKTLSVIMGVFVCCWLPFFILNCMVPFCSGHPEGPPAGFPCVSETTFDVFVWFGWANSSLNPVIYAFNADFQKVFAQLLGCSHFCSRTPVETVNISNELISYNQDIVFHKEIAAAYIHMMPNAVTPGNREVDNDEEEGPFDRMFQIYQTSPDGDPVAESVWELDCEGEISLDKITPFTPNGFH
Sequence of Muscarinic acetylcholine receptor M4 (Homo sapiens) (P08173 whole entry): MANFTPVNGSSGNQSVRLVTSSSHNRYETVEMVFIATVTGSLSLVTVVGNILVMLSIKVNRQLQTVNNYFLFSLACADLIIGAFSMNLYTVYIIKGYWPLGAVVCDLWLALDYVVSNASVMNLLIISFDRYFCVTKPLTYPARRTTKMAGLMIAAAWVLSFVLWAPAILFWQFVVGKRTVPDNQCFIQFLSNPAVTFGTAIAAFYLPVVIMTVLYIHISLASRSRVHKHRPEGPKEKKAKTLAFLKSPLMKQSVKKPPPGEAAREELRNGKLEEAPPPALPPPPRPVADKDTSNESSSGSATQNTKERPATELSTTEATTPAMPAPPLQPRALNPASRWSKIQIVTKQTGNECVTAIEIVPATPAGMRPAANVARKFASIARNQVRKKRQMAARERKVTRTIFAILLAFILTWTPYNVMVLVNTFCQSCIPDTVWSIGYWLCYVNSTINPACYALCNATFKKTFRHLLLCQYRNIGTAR
Sequence of Alpha-2C adrenergic receptor (Homo sapiens) (P18825 whole entry): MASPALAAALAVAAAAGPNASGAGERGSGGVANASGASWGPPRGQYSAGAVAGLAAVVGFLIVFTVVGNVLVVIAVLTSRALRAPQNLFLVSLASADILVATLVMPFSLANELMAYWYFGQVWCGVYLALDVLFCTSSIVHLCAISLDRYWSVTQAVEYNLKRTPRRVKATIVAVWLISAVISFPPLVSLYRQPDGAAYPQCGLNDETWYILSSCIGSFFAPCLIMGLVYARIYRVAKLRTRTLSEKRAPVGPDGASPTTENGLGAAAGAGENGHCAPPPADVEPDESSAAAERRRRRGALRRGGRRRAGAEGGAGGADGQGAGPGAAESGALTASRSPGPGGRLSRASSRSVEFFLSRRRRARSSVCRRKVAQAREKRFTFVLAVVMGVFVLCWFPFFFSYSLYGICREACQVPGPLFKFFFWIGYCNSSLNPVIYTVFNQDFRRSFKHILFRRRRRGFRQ
Sequence of Sodium-dependent dopamine transporter (Q01959 whole entry): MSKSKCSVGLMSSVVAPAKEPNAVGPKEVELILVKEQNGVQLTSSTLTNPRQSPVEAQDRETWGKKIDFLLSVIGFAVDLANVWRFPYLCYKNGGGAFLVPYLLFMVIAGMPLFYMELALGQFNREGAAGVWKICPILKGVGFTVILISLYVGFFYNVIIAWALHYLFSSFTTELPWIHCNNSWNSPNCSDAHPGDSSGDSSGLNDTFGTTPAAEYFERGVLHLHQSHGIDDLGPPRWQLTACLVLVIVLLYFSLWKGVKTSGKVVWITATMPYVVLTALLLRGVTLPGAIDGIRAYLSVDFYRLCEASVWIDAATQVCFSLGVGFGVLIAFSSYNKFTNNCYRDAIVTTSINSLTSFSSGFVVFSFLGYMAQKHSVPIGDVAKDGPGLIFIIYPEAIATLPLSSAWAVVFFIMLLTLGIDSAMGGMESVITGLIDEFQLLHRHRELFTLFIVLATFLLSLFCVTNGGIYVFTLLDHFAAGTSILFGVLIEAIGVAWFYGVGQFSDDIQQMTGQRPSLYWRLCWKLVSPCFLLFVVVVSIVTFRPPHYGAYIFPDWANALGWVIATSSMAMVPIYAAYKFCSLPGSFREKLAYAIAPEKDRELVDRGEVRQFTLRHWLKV
Sequence of Alpha-1B adrenergic receptor (P35368 whole entry): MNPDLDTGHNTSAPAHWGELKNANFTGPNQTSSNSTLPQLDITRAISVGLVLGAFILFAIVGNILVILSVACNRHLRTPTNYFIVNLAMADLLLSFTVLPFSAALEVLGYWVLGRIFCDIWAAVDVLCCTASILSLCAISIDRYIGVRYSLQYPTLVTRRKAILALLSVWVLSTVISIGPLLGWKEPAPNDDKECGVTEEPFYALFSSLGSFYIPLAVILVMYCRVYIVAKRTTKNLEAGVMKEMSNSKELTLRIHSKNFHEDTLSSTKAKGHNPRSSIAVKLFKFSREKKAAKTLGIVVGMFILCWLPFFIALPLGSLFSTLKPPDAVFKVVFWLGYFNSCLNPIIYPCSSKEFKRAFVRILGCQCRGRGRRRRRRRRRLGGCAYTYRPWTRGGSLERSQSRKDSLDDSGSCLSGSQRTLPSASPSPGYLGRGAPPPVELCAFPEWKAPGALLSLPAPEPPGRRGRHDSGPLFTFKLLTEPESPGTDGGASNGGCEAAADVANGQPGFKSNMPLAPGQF

SMILES	inhibition [1]	inhibition [2]	Ki [3]	Ki [4]	Ki [5]	Ki [6]	Ki (D(3) dopamine receptor)	Ki (D(1B) dopamine receptor)	inhibition [7]	inhibition [8]	inhibition [9]
C1CCC(CN2C3CCC2CC3)CC1	< 50%	< 50%	–	–	–	–	–	–	–	–	–
C1CC2CCC1N2CC12C3C4C5C3C1C5C42 (configuration not stated)	–	–	4.24 µM	> 10 µM	0.661 µM	> 10 µM	> 10 µM	–	–	–	–
C1CCC(CN2CCCC2)CC1	< 50%	–	–	–	–	–	–	> 10 µM	< 50%	< 50%	< 50%
